Data: article PMC5352362, “Molecular and functional evaluation of a novel HIF inhibitor, benzopyranyl 1,2,3-triazole compound” (Oncotarget, 2016)

Legend:
[1] = target: HIF-1α (Homo sapiens, UniProt Q16665); assay: Western blot of HIF-1α protein in hypoxic A549 cells; format: cell-based; conditions: hypoxia 16 h
Experimental: Next, we evaluated the inhibitory effects of the nine aforementioned test compounds on HIF-1α protein accumulation by western blot analyses in A549 cells experiencing hypoxic conditions.
Treatment was under hypoxic conditions for 16 h. Cells were then lysed for western blot analysis, which was conduced with antibodies against HIF-1α and β-actin. Expression levels were quantified by ImageJ (NIH, Bethesda, MO, USA) and graphed. **P < 0.01 versus 1% O2 DMSO (D)-treated control group.
(B, C) After HEK-293 cells (B) and A549 cells (C) were treated with Compound 12 (at concentrations of 0 nM, 0.1 nM, 1 nM, 10 nM, 100 nM, and 1000 nM) under hypoxic conditions for 16 h, expression of HIF-1α was determined by western blot analysis and then graphed. (D, E) Half maximal inhibitory concentration (IC50) values were calculated using GraphPad Prism software, using the quantified HIF-1α levels determined in B and C.
HEK-293 cells and A549 cells were treated with Compound 12, at 0.1–1000 nM concentrations, under hypoxic conditions for 16 h.
Proteins extracted from cells using PRO-PREP (iNtRon Biotech, South Korea) were separated by SDS-PAGE and transferred to a nitrocellulose membrane (Whatman, Maidstone, UK). Membranes were blocked with 5% skim milk in Tris-buffered saline (TBS) containing 0.1% Tween-20 for 30 min at room temperature (RT). After blocking, membranes were incubated with specific primary antibodies overnight at 4°C, followed by incubation with horseradish peroxidase-conjugated mouse- or rabbit-IgG for 1 h at RT. Antibody binding was detected using an enhanced chemiluminescence (ECL) kit (BioRad, Hercules, CA) according to the manufacturer's instructions. Primary antibodies against the following factors were used: HIF-1α (BD Biosciences, San Diego, CA, USA), HIF-1β (Cell Signaling Technology, Danvers, MA, USA), β-actin (Santa Cruz Biotechnology, Santa Cruz, CA, USA), hydroxylated-HIF-1α (P564) (Cell Signaling Technology, Danvers, MA, USA), and PHD2 (Abcam, Cambridge, UK).

[2] = system: hydroxylated (OH)-HIF-1α at P402 or P564, PHD2, HIF-1β; assay: Western blot of hydroxylated HIF-1α, PHD2 and HIF-1β in A549 cells; format: cell-based, human; conditions: 1–100 nM, 16 h
Experimental: Figure 4 Compound 12 increased hydroxylation and proteasome-mediated degradation of HIF-1α (A) A549 cells were treated with Compound 12 (at concentrations of 0 nM, 1 nM, 10 nM, and 100 nM) for 16 h. Cells were fixed with paraformaldehyde; an immunofluorescence assay was then performed using anti-HIF-1α antibodies and Alexa Fluor 488-labeled secondary antibodies (green). Nuclei were stained with DAPI. N, normoxia; H, hypoxia. (B) A549 cells were treated with Compound 12 (10 nM concentration) and exposed to hypoxic conditions for 16 h. Cells were immediately treated with cycloheximide (CHX, 100 μg/mL) for the time indicated, and HIF-1α protein levels were determined by western blotting. β-actin was used as an internal control. Half-life (t1/2) of HIF-1α protein was determined using relative expression levels of HIF-1α. (C) A549 cells were treated with Compound 12 (at concentrations of 0 nM, 1 nM, 10 nM, and 100 nM) for 16 h. The expression levels of HIF-1α, hydroxylated (OH)-HIF-1α at P402 or P564, and PHD2 were determined via western blotting using specific antibodies. N, normoxia; H, hypoxia. (D) A549 cells were transfected with two kinds of small interfering RNAs targeting PHD2 and then treated with Compound 12 under hypoxic exposure for 16 h. Cell lysates were immunoblotted with an anti-HIF-1α and PHD2 antibody. (E) After A549 cells were treated with Compound 12 for 16 h, cells were treated with MG132 (20 μM) for 4 h. Cell lysates were immunoprecipitated (IP) with anti-HIF-1α antibody, and were then immunoblotted (IB) with anti-ubiquitin antibody. Relative levels of ubiquitinated HIF-1α were quantified and graphed. […]
Proteins extracted from cells using PRO-PREP (iNtRon Biotech, South Korea) were separated by SDS-PAGE and transferred to a nitrocellulose membrane (Whatman, Maidstone, UK). […] Antibody binding was detected using an enhanced chemiluminescence (ECL) kit (BioRad, Hercules, CA) according to the manufacturer's instructions. […]

Sequence of HIF-1α (Q16665 whole entry): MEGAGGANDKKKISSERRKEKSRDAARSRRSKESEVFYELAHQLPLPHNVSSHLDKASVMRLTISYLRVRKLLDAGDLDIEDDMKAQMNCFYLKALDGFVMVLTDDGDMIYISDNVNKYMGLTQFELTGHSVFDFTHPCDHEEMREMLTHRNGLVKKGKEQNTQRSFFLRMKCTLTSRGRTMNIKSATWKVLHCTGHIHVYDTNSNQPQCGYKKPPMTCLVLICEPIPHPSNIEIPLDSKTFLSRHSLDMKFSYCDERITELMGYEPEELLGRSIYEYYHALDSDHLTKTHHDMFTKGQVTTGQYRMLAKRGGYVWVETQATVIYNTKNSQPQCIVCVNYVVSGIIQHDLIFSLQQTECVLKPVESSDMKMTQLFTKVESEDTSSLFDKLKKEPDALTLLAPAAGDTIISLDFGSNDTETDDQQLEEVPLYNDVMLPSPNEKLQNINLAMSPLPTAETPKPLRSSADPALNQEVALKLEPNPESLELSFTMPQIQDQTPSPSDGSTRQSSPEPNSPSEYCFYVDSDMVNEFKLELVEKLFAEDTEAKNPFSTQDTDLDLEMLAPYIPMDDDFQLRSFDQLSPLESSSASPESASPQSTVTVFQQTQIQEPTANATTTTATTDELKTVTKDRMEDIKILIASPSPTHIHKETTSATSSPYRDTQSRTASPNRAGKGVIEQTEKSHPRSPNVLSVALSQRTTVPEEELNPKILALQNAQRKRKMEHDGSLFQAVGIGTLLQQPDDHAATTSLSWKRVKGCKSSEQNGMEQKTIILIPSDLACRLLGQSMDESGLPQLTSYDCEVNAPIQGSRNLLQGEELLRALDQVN

Question: Which inhibition at 0.001 µM ([1]; 1 nM, read-out: downregulation of HIF-1α protein expression) does the source give for COc1ccc(-c2cn(CC3(C)C=Cc4cc([N+](=O)[O-])ccc4O3)nn2)cc1 (stereo not drawn) [Compound 12, 4-(4-methoxyphenyl)-1-((2-methyl-6-nitro-2H-chromen-2-yl)methyl)-1H-1,2,3-triazole] here?
Answer: ~50%

Question: And the “inhibitory effect on HIF-1α accumulation (western blot)” value ([1]; 1 μM)?
Answer: most potent inhibitory effect

Question: And the inhibition at 1 µM ([1]; 1 μM, compared to hypoxic control, read-out: reduction of HIF-1α protein levels)?
Answer: 80%

Question: What about the HIF-1β expression [2] of the same molecule?
Answer: did not inhibit

Question: What about the PHD2 levels [2] of the same molecule?
Answer: increased even at the lowest dose (1 nM)

Question: And the “hydroxylation of HIF-1α (P402, P564)” value [2]?
Answer: increased hydroxylation of HIF-1α in a dose-dependent manner
